Ends that are not written are not given here.
How the values were obtained:
[1] = test system: S. aureus ATCC 29213; assay: MIC, broth dilution; format: cell-based, Staphylococcus aureus; settings: Table 5; STIP3 variants, highest concentration 100 μg/mL
Outline: (§1)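 Peptides of 95% purity tested as 2-fold dilution series against bacteria diluted to OD 6×10^−4 in cation-adjusted Mueller Hinton broth. Standing cultures incubated overnight at 37° C; MIC is the lowest concentration with no visible growth.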

[2] = test system: S. aureus ATCC 33592 (MRSA SCCmec type III); assay: MIC, broth dilution; format: cell-based, Staphylococcus aureus; settings: Table 5; STIP3 variants, highest concentration 100 μg/mL
Outline: as §1

[3] = test system: S. aureus ATCC BAA-1683 (MRSA SCCmec type IV); assay: MIC, broth dilution; format: cell-based, Staphylococcus aureus; settings: Table 5; STIP3 variants, highest concentration 100 μg/mL
Outline: as §1

[4] = test system: S. aureus ATCC BAA-2094 (MRSA SCCmec type V); assay: MIC, broth dilution; format: cell-based, Staphylococcus aureus; settings: Table 5; STIP3 variants, highest concentration 100 μg/mL
Outline: as §1

[5] = test system: S. aureus ATCC BAA-2313 (MRSA SCCmec type XI); assay: MIC, broth dilution; format: cell-based, Staphylococcus aureus; settings: Table 5; STIP3 variants, highest concentration 100 μg/mL
Outline: as §1

[6] = test system: S. aureus ATCC BAA-41 (MRSA SCCmec type II); assay: MIC, broth dilution; format: cell-based, Staphylococcus aureus; settings: Table 5; STIP3 variants, highest concentration 100 μg/mL
Outline: as §1

[7] = test system: S. aureus ATCC BAA-42 (MRSA SCCmec type VI); assay: MIC, broth dilution; format: cell-based, Staphylococcus aureus; settings: Table 5; STIP3 variants, highest concentration 100 μg/mL
Outline: as §1

[8] = test system: S. aureus ATCC BAA-44 (MRSA SCCmec type I); assay: MIC, broth dilution; format: cell-based, Staphylococcus aureus; settings: Table 5; STIP3 variants, highest concentration 100 μg/mL
Outline: as §1

[9] = test system: S. aureus / MRSA (ATCC MP-2 panel); format: cell-based, Staphylococcus aureus; settings: MIC screen, in words
Procedure: In order to begin to characterize STIP3-1 and potential sites amenable to modification, an alanine scanning experiment was performed. A total of 16 peptides with single alanine substitutions were assessed to inform on the importance of individual residues to antimicrobial activity. […] Next a series of thirty STIP3-1 variants were designed, guided by the aforementioned alanine scan and a previous report that the central α-helical core of the S. aureus δ-toxin could be converted into AMP through the inclusion of additional lysine residues^39. The collection included ten members with single substitutions relative to STIP3-1 and others that incorporated a number of changes that were designed to increase overall and local cationic charge as well as hydrophobic character (Table 5). Each of the STIPs was screened, including STIP3-1 to STIP-31, for antibiotic activity against a methicillin-sensitive S. aureus test organism and a panel of 7 MRSA strains defined by distinct SCCmec genotypes (FIG. 2; ATCC MP-2).
Determination of minimum inhibitory concentrations. The MICs were measured for bioactive peptides identified from the initial screen. For bacterial studies, cation-adjusted Mueller Hinton (MH) broth was used as the growth medium whereas YPD was used for C. albicans. Bacterial cultures were diluted to a OD value of 6×10^−4 in MH broth and a 180 μl volume was mixed with 20 μl of peptide arrayed as 2-fold dilution series in a 96-well plate. For the positive control, 20 μl of sterile water was used. Plates were incubated as standing cultures overnight at 37° C. The lowest peptide concentration that resulted no observed microbial growth after an overnight treatment was defined as the MIC.

[10] = test system: Mannheimia haemolytica ATCC 33393; assay: MIC, broth dilution; format: cell-based; settings: Table 11; highest concentration 25 μg/mL
Outline: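 Read-out is the lowest peptide concentration showing no growth after an overnight standing culture at 37 °C. Two-fold serial dilutions of 95%-pure peptide were tested against M. haemolytica ATCC 33393 at OD 6×10^−4 in cation-adjusted MH broth.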

[11] = test system: C. albicans MYA-2876; assay: MIC, YPD broth; format: cell-based, Candida albicans; settings: Table 8
Outline: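 Yeast cells were diluted in YPD broth, and 180 μl aliquots were mixed with 20 μl of peptide from 2-fold serial dilutions in flat-bottom 96-well microtitre plates. Wells receiving 20 μl sterile water served as controls. After standing incubation overnight at 37° C, the MIC was taken as the lowest peptide concentration with no visible microbial growth.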

[12] = test system: C. albicans Y537; assay: MIC, YPD broth; format: cell-based, Candida albicans; settings: Table 8
[13] = test system: Candida duobushaemulonii AR 391; assay: MIC, YPD broth, CDC and FDA AR Candida isolate panel; format: cell-based; settings: Table 9 below the line: only 200 or 100 μg/mL tested; values reported as 100 are ≤100 μg/mL
Outline: (§2)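 Growth inhibition by peptides (95% pure) is scored after standing overnight incubation at 37° C. Cells at an optical density of […] are exposed to a doubling dilution series of peptide.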

[14] = test system: Candida duobushaemulonii AR 392; assay: as above; format: cell-based; settings: Table 9 below the line: only 200 or 100 μg/mL tested; values reported as 100 are ≤100 μg/mL
Outline: as §2

[15] = test system: Candida duobushaemulonii AR 394; assay: as above; format: cell-based; settings: Table 9 below the line: only 200 or 100 μg/mL tested; values reported as 100 are ≤100 μg/mL
Outline: as §2

[16] = test system: Candida haemulonii AR 393; assay: as above; format: cell-based; settings: Table 9 below the line: only 200 or 100 μg/mL tested; values reported as 100 are ≤100 μg/mL
Outline: as §2

[17] = test system: Candida haemulonii AR 395; assay: as above; format: cell-based; settings: Table 9 below the line: only 200 or 100 μg/mL tested; values reported as 100 are ≤100 μg/mL
Outline: as §2

[18] = test system: Candida krusei AR 397; assay: as above; format: cell-based; settings: Table 9 below the line: only 200 or 100 μg/mL tested; values reported as 100 are ≤100 μg/mL
Outline: as §2

[19] = test system: Candida lusitaniae AR 398; assay: as above; format: cell-based; settings: Table 9 below the line: only 200 or 100 μg/mL tested; values reported as 100 are ≤100 μg/mL
Outline: as §2

[20] = test system: Kodamae ohmeri AR 396; assay: as above; format: cell-based; settings: Table 9 below the line: only 200 or 100 μg/mL tested; values reported as 100 are ≤100 μg/mL
Outline: as §2

[21] = test system: Saccharomyces cerevisiae AR 399; assay: as above; format: cell-based; settings: Table 9 below the line: only 200 or 100 μg/mL tested; values reported as 100 are ≤100 μg/mL
Outline: as §2

[22] = test system: Saccharomyces cerevisiae AR 400; assay: as above; format: cell-based; settings: Table 9 below the line: only 200 or 100 μg/mL tested; values reported as 100 are ≤100 μg/mL
Outline: as §2

Row | Sequence | MIC S. aureus ATCC 29213 [1] | MIC S. aureus ATCC 33592 (III) [2] | MIC S. aureus ATCC BAA 1683 (IV) [3] | MIC S. aureus ATCC BAA 2094 (V) [4] | MIC S. aureus ATCC BAA 2313 (XI) [5] | MIC S. aureus ATCC BAA 41 (II) [6] | MIC S. aureus ATCC BAA 42 (VI) [7] | MIC S. aureus ATCC BAA 44 (I) [8] | inhibition of S. aureus [9] | MIC (μg/mL) M. haemolytica [10] | MIC C. albicans MYA-2876 [11] | MIC (μg/mL) Candida duobushaemulonii AR 391 [13] | MIC (μg/mL) Candida duobushaemulonii AR 392 [14] | MIC (μg/mL) Candida duobushaemulonii AR 394 [15] | MIC (μg/mL) Candida haemulonii AR 393 [16] | MIC (μg/mL) Candida haemulonii AR 395 [17] | MIC (μg/mL) Candida krusei AR 397 [18] | MIC (μg/mL) Candida lusitaniae AR 398 [19] [µg/mL] | MIC (μg/mL) Kodamae ohmeri AR 396 [20] | MIC (μg/mL) Saccharomyces cerevisiae AR 399 [21] [µg/mL] | also measured
1 | TVKFLVKWILKWVAKFA [STIP3-25, TVKFLVKWILKWVAKFA] | > (no inhibition was observed at the highest concentration of peptide tested: 100 μg/mL for the STIP3 variants) | > (no inhibition was observed at the highest concentration of peptide tested: 100 μg/mL for the STIP3 variants) | > (no inhibition was observed at the highest concentration of peptide tested: 100 μg/mL for the STIP3 variants) | > (no inhibition was observed at the highest concentration of peptide tested: 100 μg/mL for the STIP3 variants) | > (no inhibition was observed at the highest concentration of peptide tested: 100 μg/mL for the STIP3 variants) | > (no inhibition was observed at the highest concentration of peptide tested: 100 μg/mL for the STIP3 variants) | > (no inhibition was observed at the highest concentration of peptide tested: 100 μg/mL for the STIP3 variants) | > (no inhibition was observed at the highest concentration of peptide tested: 100 μg/mL for the STIP3 variants) | incapable of inhibiting S. aureus | > (> symbol indicates that no inhibition was observed at the highest concentration of peptide tested: 25 μg/mL) | 25 µg/mL | > (values below the line were determined using two concentrations of peptide 200 or 100 μg/mL) | > (values below the line were determined using two concentrations of peptide 200 or 100 μg/mL) | > (values below the line were determined using two concentrations of peptide 200 or 100 μg/mL) | > (values below the line were determined using two concentrations of peptide 200 or 100 μg/mL) | > (values below the line were determined using two concentrations of peptide 200 or 100 μg/mL) | > (values below the line were determined using two concentrations of peptide 200 or 100 μg/mL) | ≤ 100 | > (values below the line were determined using two concentrations of peptide 200 or 100 μg/mL) | ≤ 100 | MIC C. albicans Y537 [12]: 25 µg/mL; MIC (μg/mL) Saccharomyces cerevisiae AR 400 [22]: ≤ 100 µg/mL
2 | TVGVLVKWILNVVAKFA [STIP3-24, TVGVLVKWILNVVAKFA] | > (no inhibition was observed at the highest concentration of peptide tested: 100 μg/mL for the STIP3 variants) | > (no inhibition was observed at the highest concentration of peptide tested: 100 μg/mL for the STIP3 variants) | > (no inhibition was observed at the highest concentration of peptide tested: 100 μg/mL for the STIP3 variants) | > (no inhibition was observed at the highest concentration of peptide tested: 100 μg/mL for the STIP3 variants) | > (no inhibition was observed at the highest concentration of peptide tested: 100 μg/mL for the STIP3 variants) | > (no inhibition was observed at the highest concentration of peptide tested: 100 μg/mL for the STIP3 variants) | > (no inhibition was observed at the highest concentration of peptide tested: 100 μg/mL for the STIP3 variants) | > (no inhibition was observed at the highest concentration of peptide tested: 100 μg/mL for the STIP3 variants) | incapable of inhibiting S. aureus | > (> symbol indicates that no inhibition was observed at the highest concentration of peptide tested: 25 μg/mL) | > (> symbol indicates that no inhibition was observed at the highest concentration of peptide tested: 100 μg/mL) | > (values below the line were determined using two concentrations of peptide 200 or 100 μg/mL) | > (values below the line were determined using two concentrations of peptide 200 or 100 μg/mL) | > (values below the line were determined using two concentrations of peptide 200 or 100 μg/mL) | > (values below the line were determined using two concentrations of peptide 200 or 100 μg/mL) | > (values below the line were determined using two concentrations of peptide 200 or 100 μg/mL) | > (values below the line were determined using two concentrations of peptide 200 or 100 μg/mL) | ≤ 100 | > (values below the line were determined using two concentrations of peptide 200 or 100 μg/mL) | ≤ 100 | MIC (μg/mL) Saccharomyces cerevisiae AR 400 [22]: ≤ 100 µg/mL

From patent US12370235B2, “Synthetic, non-natural antimicrobial peptides inspired by Staphylococcus auricularis delta toxin” (University of Saskatchewan, priority 2021, dated 2025)
